Assay results as given in PubChem BioAssay (NCI).
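A five-concentration, 48-hour dose response in 96-well plates underlies each endpoint, interpolated linearly between surrounding concentrations. GI50 is the concentration that inhibits growth by half. TGI: total growth inhibition.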

Columns and labels:
Assay in all cases: DTP human tumour cell line panel, 48 h
[1] = test system: NCI-H23 lung
[2] = test system: TK-10 renal
[3] = test system: SW-620 colon
[4] = test system: MDA-MB-231 breast
[5] = test system: UACC-257 melanoma
[6] = test system: UO-31 renal
[7] = test system: DMS 273 small cell lung
[8] = test system: KM20L2 colon
[9] = test system: LXFL 529 NSCLC
[10] = test system: HOP-18 NSCLC
[11] = test system: M19-MEL melanoma
[12] = test system: SNB-78 CNS
[13] = test system: DLD-1 colon
[14] = test system: DMS 114 small cell lung
[15] = test system: XF 498 CNS

| SMILES | TGI [1] [µM] | TGI [2] [µM] | TGI [3] [µM] | TGI [4] [µM] | TGI [5] [µM] | TGI [6] [µM] | other results |
| --- | --- | --- | --- | --- | --- | --- | --- |
| COc1ccc(OC)c([N+](=O)[O-])c1-c1nc2sc(C)c(C)n2c1/C=N/N=C(N)N | > 100 | > 100 | > 100 | > 100 | > 100 | > 100 |  |
| CC(C)=CC[C@H]1C[C@@]2(CC=C(C)C)C(=O)/C(=C(/O)c3ccccc3)C(=O)[C@](CC=C(C)C)(C2=O)C1(C)C | 73.9 | 20.6 | 54.9 | 22.3 | 19.7 | 13.3 |  |
| N=C(N)SCCN1CCCCC1 | > 100 | > 100 | > 100 | 44.6 | 41.6 | > 100 |  |
| O=C(CSc1nc2ccc(I)cc2c(=O)n1Cc1ccccc1)NN1C(=O)CSC1c1ccccc1 (stereo not given) | 43.2 | 86 | > 100 | 65.6 | 57.5 |  |  |
| C[N+]1(C)C/C(=C\c2ccc(O)cc2)C(=O)/C(=C/c2ccc(O)cc2)C1 |  | > 100 | > 100 |  | > 100 | > 100 | TGI [7]: > 100 µM; TGI [8]: > 100 µM; TGI [9]: > 100 µM; TGI [10]: > 100 µM; TGI [11]: > 100 µM; TGI [12]: > 100 µM; TGI [13]: > 100 µM; TGI [14]: > 100 µM |
| CC(=O)[C@]12OC(=O)C3=C1[C@H](CC[C@@H]3C)[C@@H](C)C[C@H]2C=C(C)C | 17.9 |  | 15.3 | 15.6 | 21 | 15.2 |  |
| CCCCCCCCc1ccc(CCC(N)(CO)CO)cc1 |  | 3.58 | 3.08 | 1.98 | 5.01 | 3.4 | GI50 [2]: 1890 nM; GI50 [3]: 1640 nM; GI50 [4]: 521 nM; GI50 [5]: 2230 nM; GI50 [6]: 1700 nM |
| CC(=O)c1c(C)cc2cccc(OC3OC(CO)C(O)C(O)C3O)c2c1O (stereo not given) (tested in a mixture with another compound) | > 100 | > 100 | > 100 | > 100 | > 100 |  |  |
| C=C(C[C@@H](O)[C@H](C)NC(=O)OCc1ccccc1)C(=O)OC(C)(C)C | > 100 | > 100 | > 100 | > 100 | > 100 | > 100 |  |
| COc1cc(O)c2c(=O)c(OC)c(-c3ccc(OC)c(OC)c3)oc2c1.[Zn+2] |  | > 100 | > 100 | 65.4 |  | > 100 | GI50 [4]: 3830 nM |
| CC(=O)Oc1cc(/C=C/c2ccc(O)cc2)cc(OC(C)=O)c1 | 53.9 | > 100 | > 100 | > 100 | > 100 | > 100 |  |
| C[N+]1(c2ccccc2)C=C(c2ccccc2)SC1=S (stereo not given) | > 100 | > 100 | > 100 | > 100 | > 100 | > 100 |  |
| CC[C@H]1C=CCC[C@@]2(C[C@@H]3CC[C@H]4[C@@H](C(=O)OCCCCCCCCCCCCCCCC(=O)N(CCCNC(C)=O)C[C@H](CCNC(C)=O)OC(C)=O)[C@@]5(CCC[C@@H](C)O5)NC(=[N+]34)N2)O1 | 3.19 | 2.99 | 3.25 |  | 2.68 | 3.16 |  |
| Nc1ccc(S(=O)(=O)NCCS(=O)(=O)O)cc1 | > 100 | > 100 | > 100 | > 100 | > 100 | > 100 |  |
| NC(=S)N/N=C1\CC(c2ccccc2)Nc2ccccc21 (stereo not given) | > 100 | > 100 | > 100 |  |  | 80.7 | TGI [7]: > 100 µM; TGI [8]: 47.2 µM; TGI [9]: > 100 µM; TGI [10]: > 100 µM; TGI [11]: > 100 µM; TGI [12]: > 100 µM; TGI [15]: 35.2 µM; TGI [13]: > 100 µM; TGI [14]: 63.4 µM |
| O=C(c1ccc(Cl)c(Cl)c1)N(C(=O)N1CCN(c2ccccc2)CC1)S(=O)(=O)c1ccccc1 | 96.2 | > 100 | > 100 | > 100 | > 100 | 50.3 |  |
| O=C(/C=C/c1ccc(O)cc1)c1cc(-c2cc(CCC(=O)c3ccc(O)cc3O)ccc2O)c(O)cc1O | > 50 | > 50 | > 50 | > 50 | > 50 | > 50 |  |
| Cc1ncc(COP(=O)(O)O)c(C)c1O | > 100 | > 100 | > 100 | > 100 | > 100 | > 100 |  |
| CC(=O)C(N=NC1CCC(S(=O)(=O)NB2N=CS2)CC1)C(=O)Nc1ccccc1C (stereo not given) | 28.9 | 58.6 | 30 |  | 45.1 | 34 | TGI [7]: 48 µM; TGI [8]: 29.6 µM; TGI [9]: 27.6 µM; TGI [10]: 80 µM; TGI [11]: 34.1 µM; TGI [12]: 67.1 µM; TGI [15]: 33.6 µM; TGI [13]: 35.4 µM; TGI [14]: 26.3 µM |
| CCOc1ccc(N=Nc2ccc(-c3ccc(N=Nc4c(O)ccc5cc(S(=O)(=O)O)cc(S(=O)(=O)O)c45)cc3)cc2)cc1 | > 100 | > 100 | > 100 | > 100 | > 100 | > 100 |  |
| O=C1O/C(=C\C=C\CO)C=C1/C=C/CO | 41.9 | 41 | 45.9 | 52.8 |  | 30.8 |  |
